Data reported in PMC3767384 (The Biochemical journal, 2012).

Legend:
[1] = tested on: primary bovine retinal endothelial cells (BREC); assay: In vitro permeability assay, VEGF-induced, 70 kDa RITC-Dextran; format: cell-based; conditions: siRNA transfection for 72 h, 50 ng/ml VEGF
PKCβ = conditions: oral administration; cited from earlier work
[2] = tested on: visual loss in diabetic retinopathy; conditions: clinical trials; cited from earlier work

Compound | Effect on VEGF-induced increase in retinal endothelial permeability [1] | Effect on diabetes induced-endothelial proliferation and permeability (PKCβ) | Effect on visual loss [2]
5’-GCAAUGAACACCAGGGAAA-3’ [PKCι Construct A] | prevented the VEGF-induced increase in retinal endothelial permeability | – | –
CN(C)C[C@@H]1CCn2cc(c3ccccc32)C2=C(C(=O)NC2=O)c2cn(c3ccccc23)CCO1 [ruboxistaurin] | – | prevents these pathologic outcomes | delays sustained moderate visual loss in diabetic retinopathy
